From patent US12134599B2, “Solid forms” (River 3 Renal Corp., priority 2021, dated 2024)

Experiments:
[1] = Dynamic vapor sorption (DVS) analysis; assay type: physicochemical
[2] = physchem; details: 25 °C, water, thermodynamic from solid
Description: About 5 mg of crystalline Form E was weighed in 2 mL glass vials. 20 μL aliquots of each solvent were added to dissolve the compound at 25° C. Vortex and sonication were applied to assist dissolution. The maximum volume of each solvent added was 1 mL.

[3] = between about 0 to about 90% relative humidity (RH) at 25° C.

Row | DVS total mass change [1, 3] | Structure (SMILES) | further results
1 | about 2.1 wt. % | O=C(N[C@@H]1CCCC[C@H]1O)c1cnc(OCC(F)(F)F)c(-c2ccc(Cl)c(Cl)c2)c1 [Form 2, 5-(3,4-dichlorophenyl)-N-((1R,2R)-2-hydroxycyclohexyl)-6-(2,2,2-trifluoroethoxy)nicotinamide] | 
2 | about 1.8 wt. % | O=C(N[C@@H]1CCCC[C@H]1O)c1cnc(OCC(F)(F)F)c(-c2ccc(Cl)c(Cl)c2)c1 [Form A, 5-(3,4-dichlorophenyl)-N-((1R,2R)-2-hydroxycyclohexyl)-6-(2,2,2-trifluoroethoxy)nicotinamide] | 
3 | about 0.3 wt. % | O=C(N[C@@H]1CCCC[C@H]1O)c1cnc(OCC(F)(F)F)c(-c2ccc(Cl)c(Cl)c2)c1 [Form B, 5-(3,4-dichlorophenyl)-N-((1R,2R)-2-hydroxycyclohexyl)-6-(2,2,2-trifluoroethoxy)nicotinamide] | 
4 | about 20 wt. % | O=C(N[C@@H]1CCCC[C@H]1O)c1cnc(OCC(F)(F)F)c(-c2ccc(Cl)c(Cl)c2)c1 [Form D, 5-(3,4-dichlorophenyl)-N-((1R,2R)-2-hydroxycyclohexyl)-6-(2,2,2-trifluoroethoxy)nicotinamide] | 
5 | about 0.3 wt. % | O=C(N[C@@H]1CCCC[C@H]1O)c1cnc(OCC(F)(F)F)c(-c2ccc(Cl)c(Cl)c2)c1 [Form E, 5-(3,4-dichlorophenyl)-N-((1R,2R)-2-hydroxycyclohexyl)-6-(2,2,2-trifluoroethoxy)nicotinamide] | solubility [2]: < 5000 µg/mL
6 |  | O=C(N[C@@H]1CCCC[C@H]1O)c1cnc(OCC(F)(F)F)c(-c2ccc(Cl)c(Cl)c2)c1 [Form H, 5-(3,4-dichlorophenyl)-N-((1R,2R)-2-hydroxycyclohexyl)-6-(2,2,2-trifluoroethoxy)nicotinamide] | DVS total mass change ([1]; between about 0 to about 70% relative humidity (RH) at 25° C.): about 2.5 wt. %; DVS total mass change ([1]; between about 70 to about 90% relative humidity (RH) at 25° C.): about 25 wt. %
7 | about 10 wt. % | O=C(N[C@@H]1CCCC[C@H]1O)c1cnc(OCC(F)(F)F)c(-c2ccc(Cl)c(Cl)c2)c1 [Form I, 5-(3,4-dichlorophenyl)-N-((1R,2R)-2-hydroxycyclohexyl)-6-(2,2,2-trifluoroethoxy)nicotinamide] | 
